As usually defined, the IC20 is the concentration at which the effect reaches the 20% level. Low readings indicate an effect from little substance, high ones a need for much substance. The term IC50 denotes the concentration that gives 50% inhibition. Low readings indicate inhibition by little substance, high ones a need for much substance. In general, inhibition refers to the change of the read-out against control, counted positive when it falls.

The values below come from US20210395239A1 (Hoffmann-La Roche Inc., priority 2018, published 2021).

In series [1] the target is T1, hERG channel (Homo sapiens, UniProt Q12809).
T1 construct: expressed in transfected cells; host or cells: CHO (Chinese hamster ovary)
The series can be described thus: hERG channel inhibition assay (patch-clamp, CHOhERG cells). The class given is cell-based. The conditions noted are these: for IC20: human, CHO cells stably expressing hERG (CHOhERG); for IC20 / IC50: patch-clamp, CHOhERG cells; for hERG IC20/TLR7 IC50 / hERG IC20/TLR8 IC50 / hERG IC20/TLR9 IC50: safety ratio. An outline of the steps:
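Whole-cell voltage-clamp recordings used CHO cells stably expressing human hERG, with IKhERG evoked by a voltage protocol at 0.1 Hz. Increasing compound concentrations were applied, each for 3–10 min to reach steady state, and current amplitude and kinetics were expressed relative to control (100%).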

Series [2] concerns the target T2, CYP2C9 (Homo sapiens, UniProt P11712).
T2 construct: tissue BD-Gentest 452117; host or cells: human liver microsomes
The series can be described thus: CYP inhibition assay in human liver microsome, CYP2C9. It is filed as in vitro ADME. To be noted: human, human liver microsomes, probe diclofenac 5 μM, substrate diclofenac 5 μM, first value of 2C9/2D6/3A4. The protocol:
(§1) This is a high throughput screening assay used for assessment of reversible inhibition of CYP2C9, CYP2D6, and CYP3A4 activity of test compounds in human liver microsome (HLM) in early discovery stage.
(§2) 10 mM DMSO stock solutions of test compounds were diluted in DMSO to generate 2 mM intermediate stock solution. 250 nL, of intermediate stock solution were transferred in duplicate into 3 separate 384 well microtitre plates (assay-ready plates). A mixture of HLM and each substrate was made up. 45 μL of HLM substrate mix was then transferred to each well of an assay ready plate and mixed. The negative (solvent) and positive controls (standard inhibitor for each CYP) were included in each assay ready plate. The assay ready plate was warmed to 37° C. in an incubator over 10 minutes. 5 μL pre-warmed NADPH regenerating system was added to each incubation well to start the reaction. Final incubation volume was 50 μL. The assay plate then was placed back in the 37° C. incubator. After incubation (10 minutes for CYP2D6) for 5 minutes, incubates were quenched by addition of 50 μL 100% acetonitrile containing internal standards (400 ng/mL 13C6-4′-OH-Diclofenac, 20 ng/mL D3-Dextrorphan and 20 ng/mL D4-1′OH-Midazolam). The supernatants were collected for RapidFire/MS/MS analysis.
(§3) RapidFire online solid phase extraction/sample injection system (Agilent) coupled with API4000 triple quadrupole mass spectrometer (AB Sciex) were used for sample analysis. The mobile phase composed of acetonitrile and water supplemented with 0.1% formic acid. A C4 solid phase extraction cartridge is used for sample separation. MS detection is achieved in positive ion MRM mode.
(§4) Peak areas for substrate, metabolite and internal standard are determined using the RapidFire integrator software (version 3.6.12009.12296). Peak area ratios (PAR) of metabolite and internal standard (stable-labelled metabolite) are then calculated. The measurement window for each experiment is then defined:
(§5) PAR (0% activity)=average PAR for all incubations containing concentrated inhibitor; Par (100% activity)=average PAR for all incubations containing no inhibitor (DMSO controls); % Activity (test inhibitor)=[PAR (test inhibitor)−PAR (0% activity)]/[PAR (100% activity)−PAR (0% activity)]; % Inhibition (test inhibitor)=100-% Activity (test inhibitor).

Series [3] addresses T3, CYP2D6 (Homo sapiens, UniProt P10635).
T3 construct: tissue BD-Gentest 452117; host or cells: human liver microsomes
Nature of the series: CYP inhibition assay in human liver microsome, CYP2D6. The class given is in vitro ADME. The conditions noted are these: human, human liver microsomes, probe dextromethorphan 5 μM, substrate dextromethorphan 5 μM, second value of 2C9/2D6/3A4. The protocol:
as §1, §2, §3, §4, §5
For orientation: Liver microsomes are a subcellular fraction often used to study metabolism.

T3 sequence (P10635 whole entry): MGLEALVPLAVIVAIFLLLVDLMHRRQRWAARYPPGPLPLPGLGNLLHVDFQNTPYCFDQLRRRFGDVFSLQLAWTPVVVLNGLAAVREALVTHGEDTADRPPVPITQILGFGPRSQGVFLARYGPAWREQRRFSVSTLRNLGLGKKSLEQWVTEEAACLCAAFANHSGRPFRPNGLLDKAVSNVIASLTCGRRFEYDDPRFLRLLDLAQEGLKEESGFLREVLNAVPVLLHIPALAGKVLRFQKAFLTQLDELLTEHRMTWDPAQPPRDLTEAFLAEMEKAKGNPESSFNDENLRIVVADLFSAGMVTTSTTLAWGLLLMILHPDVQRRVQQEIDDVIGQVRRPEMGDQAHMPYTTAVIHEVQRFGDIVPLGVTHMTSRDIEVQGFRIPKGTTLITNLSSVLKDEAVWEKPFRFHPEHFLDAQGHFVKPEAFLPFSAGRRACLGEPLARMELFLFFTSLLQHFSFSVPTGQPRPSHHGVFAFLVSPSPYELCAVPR
T2 sequence (P11712 whole entry): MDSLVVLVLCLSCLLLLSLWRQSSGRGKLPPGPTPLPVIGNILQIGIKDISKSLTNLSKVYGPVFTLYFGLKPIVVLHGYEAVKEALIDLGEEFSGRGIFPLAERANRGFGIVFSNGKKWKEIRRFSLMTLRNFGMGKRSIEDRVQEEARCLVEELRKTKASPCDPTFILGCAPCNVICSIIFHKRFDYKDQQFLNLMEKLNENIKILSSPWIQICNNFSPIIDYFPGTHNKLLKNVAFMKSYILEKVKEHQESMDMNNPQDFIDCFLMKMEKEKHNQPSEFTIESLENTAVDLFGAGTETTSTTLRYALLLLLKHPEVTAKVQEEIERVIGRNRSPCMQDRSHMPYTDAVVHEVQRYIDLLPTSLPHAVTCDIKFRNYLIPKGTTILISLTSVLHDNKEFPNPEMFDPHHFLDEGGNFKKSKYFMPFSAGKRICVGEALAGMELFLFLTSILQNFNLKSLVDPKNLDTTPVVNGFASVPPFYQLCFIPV
T1 sequence (Q12809 whole entry): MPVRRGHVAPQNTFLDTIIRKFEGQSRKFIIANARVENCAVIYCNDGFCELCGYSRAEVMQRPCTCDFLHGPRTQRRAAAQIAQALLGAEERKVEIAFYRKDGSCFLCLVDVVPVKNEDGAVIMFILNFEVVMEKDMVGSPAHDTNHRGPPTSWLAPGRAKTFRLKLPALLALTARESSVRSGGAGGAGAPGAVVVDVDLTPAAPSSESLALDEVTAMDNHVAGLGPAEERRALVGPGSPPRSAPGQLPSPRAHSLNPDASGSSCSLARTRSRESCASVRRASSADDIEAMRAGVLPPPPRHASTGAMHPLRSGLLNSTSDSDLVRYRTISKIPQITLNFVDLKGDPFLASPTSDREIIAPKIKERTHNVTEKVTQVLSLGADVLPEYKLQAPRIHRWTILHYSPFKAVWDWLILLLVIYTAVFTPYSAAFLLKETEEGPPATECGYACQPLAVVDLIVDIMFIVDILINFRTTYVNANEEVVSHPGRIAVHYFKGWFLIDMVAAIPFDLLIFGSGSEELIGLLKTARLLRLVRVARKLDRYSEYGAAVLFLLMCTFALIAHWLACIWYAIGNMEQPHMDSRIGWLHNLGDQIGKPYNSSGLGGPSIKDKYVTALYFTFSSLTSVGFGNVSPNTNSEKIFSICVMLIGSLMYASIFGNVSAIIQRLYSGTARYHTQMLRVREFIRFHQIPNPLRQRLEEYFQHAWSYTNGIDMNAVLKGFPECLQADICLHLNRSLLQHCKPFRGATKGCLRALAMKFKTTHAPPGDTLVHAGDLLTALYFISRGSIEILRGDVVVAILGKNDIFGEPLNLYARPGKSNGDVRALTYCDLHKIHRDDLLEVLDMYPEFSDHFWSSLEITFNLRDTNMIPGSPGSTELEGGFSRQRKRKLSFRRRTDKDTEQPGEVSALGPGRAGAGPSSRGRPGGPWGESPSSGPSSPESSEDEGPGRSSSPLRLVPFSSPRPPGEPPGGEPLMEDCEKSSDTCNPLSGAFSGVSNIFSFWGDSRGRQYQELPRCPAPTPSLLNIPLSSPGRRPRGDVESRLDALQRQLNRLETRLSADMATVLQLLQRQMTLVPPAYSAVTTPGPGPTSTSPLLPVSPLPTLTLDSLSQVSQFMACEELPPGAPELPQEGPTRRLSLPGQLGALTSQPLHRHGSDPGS

On to `CO[C@H]1CN(c2cc(C)nc(N3CCN(C[C@H]4CN(c5ccc(C#N)c6nccnc56)C[C@@H](C)O4)CC3)n2)C[C@@H]1N` [Example 104, 8-[(2S,6R)-2-[[4-[4-[(3S,4S)-3-amino-4-methoxy-pyrrolidin-1-yl]-6-methyl-pyrimidin-2-yl]piperazin-1-yl]methyl]-6-methyl-morpholin-4-yl]quinoxaline-5-carbonitrile], for which, in series [1], the IC20 is over 10 µM, the IC50 was over 20 µM, the “hERG IC20/TLR7 IC50” value was over 454 and the “hERG IC20/TLR8 IC50” value is over 10000. The “hERG IC20/TLR9 IC50” value in series [1] was over 142. In addition, the inhibition at 5 min, 10 µM in series [2] is -1%. For the same compound, the inhibition at 10 min, 10 µM in series [3] was found to be 15%.

`Cc1cc(N2CCNCC2)nc(N2CCN(C[C@H]3CN(c4ccc(C#N)c5nccnc45)C[C@@H](C)O3)CC2)n1` [Example 114, 8-[(2R,6S)-2-methyl-6-[[4-(4-methyl-6-piperazin-1-yl-pyrimidin-2-yl)piperazin-1-yl]methyl]morpholin-4-yl]quinoxaline-5-carbonitrile]: in series [1], the IC20 is over 10 µM, the IC50 is over 20 µM, the “hERG IC20/TLR7 IC50” value was over 3333 and the “hERG IC20/TLR8 IC50” value is on record as over 10000. For the same compound, the “hERG IC20/TLR9 IC50” value in series [1] was over 161. The inhibition at 5 min, 10 µM in series [2] was 7.5%. Also, in series [3], the inhibition at 10 min, 10 µM came to 32%.

Take `[2H]c1nc2c(C#N)ccc(N3C[C@H](CN4CCN(c5nc(C)cc(N6CC(N)C6)n5)CC4)O[C@H](C)C3)c2nc1[2H]` [Example 124, 8-[(2S,6R)-2-[[4-[4-(3-aminoazetidin-1-yl)-6-methyl-pyrimidin-2-yl]piperazin-1-yl]methyl]-6-methyl-morpholin-4-yl]-2,3-dideuterio-quinoxaline-5-carbonitrile]: in series [1], the concentration for an effect of 20% (IC20) was over 10 µM, the IC50 is over 20 µM, the “hERG IC20/TLR7 IC50” value is listed as over 2000 and the “hERG IC20/TLR8 IC50” value is over 10000. In series [1], the “hERG IC20/TLR9 IC50” value is on record as over 322. For the same compound, the inhibition at 5 min, 10 µM in series [2] is -2%. The inhibition at 10 min, 10 µM in series [3] came to 9.5%.

As to `[2H]c1ccc2c(N3C[C@H](CN4CCN(c5ccc(N6CC(C)(N)C6)nc5)CC4)O[C@H](C)C3)ccc(C#N)c2n1` [Example 132, 5-[(2S,6R)-2-[[4-[6-(3-amino-3-methyl-azetidin-1-yl)-3-pyridyl]piperazin-1-yl]methyl]-6-methyl-morpholin-4-yl]-2-deuterio-quinoline-8-carbonitrile], in series [1], the IC20 was over 10 µM, the IC50 was over 20 µM, the “hERG IC20/TLR7 IC50” value is over 434 and the “hERG IC20/TLR8 IC50” value is listed as over 625. In addition, the “hERG IC20/TLR9 IC50” value in series [1] was over 71. Besides, the inhibition at 5 min, 10 µM in series [2] was -1%. For the same compound, the inhibition at 10 min, 10 µM in series [3] was -2.5%.

Regarding `[2H]c1ccc2c(N3C[C@H](CN4CCN(c5nc(C)cc(N6C[C@H](OC)[C@@H](N)C6)n5)CC4)O[C@H](C)C3)ccc(C#N)c2n1` [Example 134, 5-[(2S,6R)-2-[[4-[4-[(3S,4S)-3-amino-4-methoxy-pyrrolidin-1-yl]-6-methyl-pyrimidin-2-yl]piperazin-1-yl]methyl]-6-methyl-morpholin-4-yl]-2-deuterio-quinoline-8-carbonitrile], the inhibition at 5 min, 10 µM in series [2] came to 44.5%. For the same compound, the inhibition at 10 min, 10 µM in series [3] is -4%.

On to `[2H]c1ccc2c(N3C[C@H](CN4CCN(c5ccc(N6C[C@@H](N)[C@H](OC)C6)nc5)CC4)O[C@H](C)C3)ccc(C#N)c2n1` [Example 143, 5-[(2S,6R)-2-[[4-[6-[(3R,4R)-3-amino-4-methoxy-pyrrolidin-1-yl]-3-pyridyl]piperazin-1-yl]methyl]-6-methyl-morpholin-4-yl]-2-deuterio-quinoline-8-carbonitrile], for which, in series [1], the IC20 was over 10 µM, the IC50 was over 20 µM, the “hERG IC20/TLR7 IC50” value was over 476 and the “hERG IC20/TLR8 IC50” value is given as over 1250. In series [1], the “hERG IC20/TLR9 IC50” value is over 212. For the same compound, the inhibition at 5 min, 10 µM in series [2] is -9.5%. Also, the inhibition at 10 min, 10 µM in series [3] is -30%.

With `[2H]c1ccc2c(N3C[C@H](CN4CCN(c5ccc(N6CC7(CNCCO7)C6)nc5)CC4)O[C@H](C)C3)ccc(C#N)c2n1` [Example 152, 2-deuterio-5-[(2R,6S)-2-methyl-6-[[4-[6-(5-oxa-2,8-diazaspiro[3.5]nonan-2-yl)-3-pyridyl]piperazin-1-yl]methyl]morpholin-4-yl]quinoline-8-carbonitrile], in series [2], the inhibition at 5 min, 10 µM was -1%. The inhibition at 10 min, 10 µM in series [3] stood at 12.5%.

Consider `C[C@@H]1CN(c2ccc(C#N)n3ncc(F)c23)C[C@H](CN2CCN(c3ccc(N4CC(C)(N)C4)nc3)CC2)O1` [Example 154, 4-[(2S,6R)-2-[[4-[6-(3-amino-3-methyl-azetidin-1-yl)-3-pyridyl]piperazin-1-yl]methyl]-6-methyl-morpholin-4-yl]-3-fluoro-pyrazolo[1,5-a]pyridine-7-carbonitrile], for which, in series [1], the IC20 was over 10 µM, the IC50 is over 20 µM, the “hERG IC20/TLR7 IC50” value is listed as over 312 and the “hERG IC20/TLR8 IC50” value was over 200. In addition, the “hERG IC20/TLR9 IC50” value in series [1] is over 89. Also, the inhibition at 5 min, 10 µM in series [2] is 2.5%. Besides, the inhibition at 10 min, 10 µM in series [3] is -10.5%.

As to `C[C@@H]1CN(c2ccc(C#N)n3ncc(F)c23)C[C@H](CN2CC(c3ccc(N4CC(C)(N)C4)nc3)C2)O1` [Example 158, 4-[(2S,6R)-2-[[3-[6-(3-amino-3-methyl-azetidin-1-yl)-3-pyridyl]azetidin-1-yl]methyl]-6-methyl-morpholin-4-yl]-3-fluoro-pyrazolo[1,5-a]pyridine-7-carbonitrile], the inhibition at 5 min, 10 µM in series [2] is -5.5%. In series [3], the inhibition at 10 min, 10 µM was -7.5%.

In the case of `C[C@@H]1CN(c2ccc(C#N)n3ncc(F)c23)C[C@H](CN2CC(c3ccc(N4CC(C)(N)C4)cc3)C2)O1` [Example 160, 4-[(2S,6R)-2-[[3-[4-(3-amino-3-methyl-azetidin-1-yl)phenyl]azetidin-1-yl]methyl]-6-methyl-morpholin-4-yl]-3-fluoro-pyrazolo[1,5-a]pyridine-7-carbonitrile], the inhibition at 5 min, 10 µM in series [2] was -1.5%. The inhibition at 10 min, 10 µM in series [3] stood at 17%.

Turning to `[2H]c1ccc2c(N3C[C@H](CN4CCN(c5ccc(N[C@H]6CNC[C@H]6F)nc5)CC4)O[C@H](C)C3)ccc(C#N)c2n1` [Example 162, 2-deuterio-5-[(2S,6R)-2-[[4-[6-[[(3S,4R)-4-fluoropyrrolidin-3-yl]amino]-3-pyridyl]piperazin-1-yl]methyl]-6-methyl-morpholin-4-yl]quinoline-8-carbonitrile], the inhibition at 5 min, 10 µM in series [2] is -2.5%. In addition, the inhibition at 10 min, 10 µM in series [3] came to 1%.

Regarding `C[C@@H]1CN(c2ccc(C#N)n3nccc23)C[C@H](CN2CC(c3ccc(N4CC(C)(N)C4)cc3)C2)O1` [Example 163, 4-[(2S,6R)-2-[[3-[4-(3-amino-3-methyl-azetidin-1-yl)phenyl]azetidin-1-yl]methyl]-6-methyl-morpholin-4-yl]pyrazolo[1,5-a]pyridine-7-carbonitrile], the inhibition at 5 min, 10 µM in series [2] is -4.5%. For the same compound, the inhibition at 10 min, 10 µM in series [3] stood at 6.5%.

Consider `CO[C@@H]1CN(c2ccc(C3CN(C[C@H]4CN(c5ccc(C#N)n6ncc(F)c56)C[C@@H](C)O4)C3)cn2)C[C@H]1N` [Example 164, 4-[(2S,6R)-2-[[3-[6-[(3R,4R)-3-amino-4-methoxy-pyrrolidin-1-yl]-3-pyridyl]azetidin-1-yl]methyl]-6-methyl-morpholin-4-yl]-3-fluoro-pyrazolo[1,5-a]pyridine-7-carbonitrile], for which, in series [2], the inhibition at 5 min, 10 µM was -1%. In series [3], the inhibition at 10 min, 10 µM was determined as 26%.

Take `C[C@@H]1CN(c2ccc(C#N)n3ncc(F)c23)C[C@H](CN2CC(c3ccc(N4C[C@@H]5C[C@H]4CN5)nc3)C2)O1` [Example 165, 4-[(2S,6R)-2-[[3-[6-[(1S,4S)-2,5-diazabicyclo[2.2.1]heptan-2-yl]-3-pyridyl]azetidin-1-yl]methyl]-6-methyl-morpholin-4-yl]-3-fluoro-pyrazolo[1,5-a]pyridine-7-carbonitrile]: the inhibition at 5 min, 10 µM in series [2] is -8.5%. Besides, the inhibition at 10 min, 10 µM in series [3] is 17.5%.
